In publication PMC6612245 (Journal of the American Chemical Society, 2019):

Tests used:
Assay type in all cases: biochemical
ForC = biological target: T1, ForC (Streptomyces kaniharaensis, UniProt A0A5S9FY43); test: anion exchange HPLC, substrate consumption; settings: L-aspartate and ATP; 4 h
T1 sequence (A0A5S9FY43 1-333): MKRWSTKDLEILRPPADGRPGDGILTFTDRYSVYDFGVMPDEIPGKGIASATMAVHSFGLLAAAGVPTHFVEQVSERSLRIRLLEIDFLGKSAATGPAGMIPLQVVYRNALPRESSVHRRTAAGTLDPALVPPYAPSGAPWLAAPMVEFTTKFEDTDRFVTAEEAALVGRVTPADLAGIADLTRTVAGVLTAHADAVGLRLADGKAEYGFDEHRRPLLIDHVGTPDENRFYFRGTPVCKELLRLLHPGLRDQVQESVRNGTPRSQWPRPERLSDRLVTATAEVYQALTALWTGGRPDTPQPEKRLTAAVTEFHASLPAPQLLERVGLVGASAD

EcPurH [1] = biological target: T2, EcPurH (Escherichia coli, UniProt P15639); test: enzymatic preparation of 6b; settings: formylation to 6b
T2 sequence (P15639 whole entry): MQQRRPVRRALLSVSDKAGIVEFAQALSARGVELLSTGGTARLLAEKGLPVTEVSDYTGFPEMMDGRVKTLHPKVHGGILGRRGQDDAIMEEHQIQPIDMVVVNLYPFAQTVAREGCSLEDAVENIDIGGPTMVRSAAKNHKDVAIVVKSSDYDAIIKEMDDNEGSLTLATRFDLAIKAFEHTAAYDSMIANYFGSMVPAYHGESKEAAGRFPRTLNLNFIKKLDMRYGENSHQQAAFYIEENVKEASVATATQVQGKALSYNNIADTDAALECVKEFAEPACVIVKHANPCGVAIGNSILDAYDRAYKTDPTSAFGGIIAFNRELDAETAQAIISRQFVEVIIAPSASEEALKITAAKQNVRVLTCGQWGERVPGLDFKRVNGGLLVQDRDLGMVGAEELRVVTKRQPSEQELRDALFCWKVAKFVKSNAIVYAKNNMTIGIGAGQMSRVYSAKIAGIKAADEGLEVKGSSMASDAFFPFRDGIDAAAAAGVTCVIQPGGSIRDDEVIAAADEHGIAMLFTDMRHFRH

SkPurH = biological target: T3, SkPurH (Streptomyces kaniharaensis, UniProt A0A6N7KQI7); test: HPLC of product 6b; settings: N10-formyl-THF; formylation without cyclization; 1 h
T3 sequence (A0A6N7KQI7 24-525): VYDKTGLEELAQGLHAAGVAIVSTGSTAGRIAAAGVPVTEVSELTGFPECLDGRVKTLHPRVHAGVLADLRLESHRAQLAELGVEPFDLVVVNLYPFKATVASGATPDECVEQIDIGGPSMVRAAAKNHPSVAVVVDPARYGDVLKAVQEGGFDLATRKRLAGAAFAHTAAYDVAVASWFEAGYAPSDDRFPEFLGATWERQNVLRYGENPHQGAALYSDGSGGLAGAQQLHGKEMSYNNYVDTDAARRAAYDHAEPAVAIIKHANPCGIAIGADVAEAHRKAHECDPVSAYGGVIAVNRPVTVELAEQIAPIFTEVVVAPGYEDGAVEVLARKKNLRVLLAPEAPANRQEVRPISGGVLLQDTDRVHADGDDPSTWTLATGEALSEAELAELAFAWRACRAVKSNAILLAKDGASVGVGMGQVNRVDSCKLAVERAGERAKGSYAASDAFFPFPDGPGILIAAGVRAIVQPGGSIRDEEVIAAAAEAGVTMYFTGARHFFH

EcPurH [2] = biological target: T2, EcPurH; test: HPLC; settings: cyclization to 7a
ForH [3] = biological target: T4, ForH (Streptomyces kaniharaensis, UniProt A0A4V8H038); test: HPLC of product 7a; settings: cyclization to 7a; 10 min incubation
ForH [4] = biological target: T4, ForH; test: HPLC of product 7b; settings: cyclization to 7b; 10 min incubation

Nc1c([C@@H]2O[C@H](COP(=O)(O)O)[C@@H](O)[C@H]2O)n[nH]c1C(=O)O [3b]
anion exchange HPLC, substrate consumption (ForC): Incubation of 3b with ForC along with L-aspartate and ATP led to the production

NC(=O)c1[nH]nc([C@@H]2O[C@H](COP(=O)(O)O)[C@@H](O)[C@H]2O)c1N [5b]
enzymatic preparation of 6b (EcPurH [1]): 6b was enzymatically prepared from 5b using E. coli PurH as the catalyst | HPLC of product 6b (SkPurH): incubation of 5b with S. kaniharaensis PurH (SkPurH) resulted in formylation of the pyrazolic amide

NC(=O)c1ncn([C@@H]2O[C@H](COP(=O)(O)O)[C@@H](O)[C@H]2O)c1NC=O [6a]
HPLC (supplement) (EcPurH [2]): 6a could be processed to 7a, while 6b could not be converted to 7b | HPLC of product 7a (ForH [3]): ForH demonstrates cyclase activity towards both 6a and 6b

NC(=O)c1[nH]nc([C@@H]2O[C@H](COP(=O)(O)O)[C@@H](O)[C@H]2O)c1NC=O [6b]
HPLC of product 7b (ForH [4]): ForH demonstrates cyclase activity towards both 6a and 6b
